Laboratory results from ChEMBL document CHEMBL3098074, “Synthesis and tumor cell growth inhibitory activity of biotinylated annonaceous acetogenins” (Eur J Med Chem, 2014).

Experiments:
4T1 [1] = experiment: Cytotoxicity against mouse 4T1 cells expressing biotin receptor after 72 hrs by MTT assay; assay type: functional, cell-based; details: 4T1, 72 h
L1210 [2] = experiment: Selectivity index, ratio of IC50 for mouse L1210 cells to IC50 for mouse 4T1 cells; assay type: functional
P815 [3] = experiment: Cytotoxicity against mouse P815 cells expressing biotin receptor after 72 hrs by MTT assay; assay type: functional, cell-based; details: P815, 72 h
L1210 [4] = experiment: Selectivity index, ratio of IC50 for mouse L1210 cells to IC50 for mouse P815 cells; assay type: functional
L1210 [5] = experiment: Cytotoxicity against mouse L1210 cells after 72 hrs by MTT assay; assay type: functional, cell-based; details: L1210, 72 h
4T1 [6] = experiment: Ratio of bullatacin IC50 to compound IC50 for mouse 4T1 cells expressing biotin receptor; assay type: functional
P815 [7] = experiment: Ratio of bullatacin IC50 to compound IC50 for mouse P815 cells expressing biotin receptor; assay type: functional
[8] = Antitumor activity against mouse HepS cells xenografted in mouse assessed as tumor growth inhibition at 30 ug/kg; assay type: functional; details: read-out: TGI
4T1 [9] = experiment: Ratio of squamocin IC50 to compound IC50 for mouse 4T1 cells expressing biotin receptor; assay type: functional
P815 [10] = experiment: Ratio of squamocin IC50 to compound IC50 for mouse P815 cells expressing biotin receptor; assay type: functional

| Structure (SMILES) | IC50 (4T1 [1]) | Ratio IC50 (L1210 [2]) | IC50 (P815 [3]) | Ratio IC50 (L1210 [4]) | IC50 (L1210 [5]) | Ratio IC50 (4T1 [6]) | Ratio IC50 (P815 [7]) | inhibition in vivo at 0.03 mg/kg [8] | Ratio IC50 (4T1 [9]) | Ratio IC50 (P815 [10]) |
| --- | --- | --- | --- | --- | --- | --- | --- | --- | --- | --- |
| CCCCCC[C@H](O)CCC[C@H](OC(=O)CCCCCNC(=O)CCCC[C@@H]1SC[C@@H]2NC(=O)N[C@@H]21)[C@H]1CC[C@H]([C@H]2CC[C@H]([C@H](O)CCCCCCCCCCCCC3=C[C@H](C)OC3=O)O2)O1 | 1540 nM | 0.9 | > 20000 nM | <0.069 | 1380 nM | – | – | – | – | – |
| CCCCCCCCCC[C@H](O)[C@H]1CC[C@H]([C@H]2CC[C@H]([C@H](O)CCCCCCCCCC[C@H](CC3=C[C@H](C)OC3=O)OC(=O)CCCC[C@@H]3SC[C@@H]4NC(=O)N[C@@H]43)O2)O1 | 650 nM | 2.18 | > 20000 nM | <0.071 | 1420 nM | – | – | – | – | – |
| CCCCCCCCCC[C@H](O)[C@H]1CC[C@H]([C@H]2CC[C@H]([C@H](O)CCCCCCCCCC[C@H](CC3=C[C@H](C)OC3=O)OC(=O)CCCCCNC(=O)CCCC[C@@H]3SC[C@@H]4NC(=O)N[C@@H]43)O2)O1 | 53 nM | 39.62 | 880 nM | 2.39 | 2100 nM | – | – | – | – | – |
| CCCCCC[C@H](O)CCC[C@H](O)[C@H]1CC[C@H]([C@H]2CC[C@H]([C@@H](CCCCCCCCCCCCC3=C[C@H](C)OC3=O)OC(=O)CCCCCNC(=O)CCCC[C@@H]3SC[C@@H]4NC(=O)N[C@@H]43)O2)O1 | 77 nM | 14.94 | 2410 nM | 0.48 | 1150 nM | – | – | – | – | – |
| CCCCCC[C@@H](CCC[C@H](O)[C@H]1CC[C@H]([C@H]2CC[C@H]([C@H](O)CCCCCCCCCCCCC3=C[C@H](C)OC3=O)O2)O1)OC(=O)CCCCCNC(=O)CCCC[C@@H]1SC[C@@H]2NC(=O)N[C@@H]21 | 6570 nM | 0.1 | > 20000 nM | <0.034 | 680 nM | – | – | – | – | – |
| CCCCCCCCCC[C@@H](O)[C@@H]1CC[C@@H]([C@@H]2CC[C@@H]([C@H](O)CCCCCCCCCC(O)CC3=CC(C)OC3=O)O2)O1 (stereo not given in full) [BULLATACIN] | 110 nM | 21.09 | 3480 nM | 0.67 | 2320 nM | – | – | – | – | – |
| CCCCCC[C@@H](CCC[C@H](O)[C@H]1CC[C@H]([C@H]2CC[C@H]([C@@H](CCCCCCCCCCCCC3=C[C@H](C)OC3=O)OC(=O)CCCC[C@@H]3SC[C@@H]4NC(=O)N[C@@H]43)O2)O1)OC(=O)CCCC[C@@H]1SC[C@@H]2NC(=O)N[C@@H]21 | 4870 nM | 0.26 | > 20000 nM | <0.063 | 1250 nM | – | – | – | – | – |
| CCCCCC[C@H](O)CCC[C@H](OC(=O)CCCCCNC(=O)CCCC[C@@H]1SC[C@@H]2NC(=O)N[C@@H]21)[C@H]1CC[C@H]([C@H]2CC[C@H]([C@@H](CCCCCCCCCCCCC3=C[C@H](C)OC3=O)OC(=O)CCCCCNC(=O)CCCC[C@@H]3SC[C@@H]4NC(=O)N[C@@H]43)O2)O1 | 340 nM | 2.47 | 930 nM | 0.9 | 840 nM | – | – | – | – | – |
| CCCCCCCCCC[C@H](O)[C@H]1CC[C@H]([C@H]2CC[C@H]([C@@H](CCCCCCCCCC[C@@H](O)CC3=C[C@H](C)OC3=O)OC(=O)CCCC[C@@H]3SC[C@@H]4NC(=O)N[C@@H]43)O2)O1 | 42 nM | 32.62 | 1550 nM | 0.88 | 1370 nM | – | – | – | – | – |
| CCCCCC[C@@H](CCC[C@H](O)[C@H]1CC[C@H]([C@H]2CC[C@H]([C@H](O)CCCCCCCCCCCCC3=C[C@H](C)OC3=O)O2)O1)OC(=O)CCCC[C@@H]1SC[C@@H]2NC(=O)N[C@@H]21 | 49 nM | 16.94 | 1340 nM | 0.62 | 830 nM | – | – | – | – | – |
| CCCCCCCCCC[C@H](OC(=O)CCCC[C@@H]1SC[C@@H]2NC(=O)N[C@@H]21)[C@H]1CC[C@H]([C@H]2CC[C@H]([C@H](O)CCCCCCCCCC[C@@H](O)CC3=C[C@H](C)OC3=O)O2)O1 | 1670 nM | 3.47 | > 20000 nM | <0.29 | 5790 nM | – | – | – | – | – |
| CCCCCCCCCC[C@H](OC(=O)CCCCCNC(=O)CCCC[C@@H]1SC[C@@H]2NC(=O)N[C@@H]21)[C@H]1CC[C@H]([C@H]2CC[C@H]([C@H](O)CCCCCCCCCC[C@@H](O)CC3=C[C@H](C)OC3=O)O2)O1 | 37 nM | 29.46 | 410 nM | 2.66 | 1090 nM | 3 | 8 | – | – | – |
| CCCCCC[C@@H](CCC[C@H](OC(=O)CCCCCNC(=O)CCCC[C@@H]1SC[C@@H]2NC(=O)N[C@@H]21)[C@H]1CC[C@H]([C@H]2CC[C@H]([C@H](O)CCCCCCCCCCCCC3=C[C@H](C)OC3=O)O2)O1)OC(=O)CCCCCNC(=O)CCCC[C@@H]1SC[C@@H]2NC(=O)N[C@@H]21 | 1870 nM | 0.63 | > 20000 nM | <0.059 | 1180 nM | – | – | – | – | – |
| CCCCCC[C@H](O)CCC[C@H](OC(=O)CCCC[C@@H]1SC[C@@H]2NC(=O)N[C@@H]21)[C@H]1CC[C@H]([C@H]2CC[C@H]([C@H](O)CCCCCCCCCCCCC3=C[C@H](C)OC3=O)O2)O1 | 630 nM | 1.52 | > 20000 nM | <0.048 | 960 nM | – | – | – | – | – |
| CCCCCCCCCC[C@H](O)[C@H]1CC[C@H]([C@H]2CC[C@H]([C@@H](CCCCCCCCCC[C@@H](O)CC3=C[C@H](C)OC3=O)OC(=O)CCCCCNC(=O)CCCC[C@@H]3SC[C@@H]4NC(=O)N[C@@H]43)O2)O1 | 300 nM | 6.1 | > 20000 nM | <0.092 | 1830 nM | – | – | – | – | – |
| CCCCCC[C@@H](CCC[C@H](OC(=O)CCCC[C@@H]1SC[C@@H]2NC(=O)N[C@@H]21)[C@H]1CC[C@H]([C@H]2CC[C@H]([C@H](O)CCCCCCCCCCCCC3=C[C@H](C)OC3=O)O2)O1)OC(=O)CCCC[C@@H]1SC[C@@H]2NC(=O)N[C@@H]21 | 290 nM | 19.62 | > 20000 nM | <0.28 | 5690 nM | – | – | – | – | – |
| CCCCCCCCCC[C@H](O)[C@H]1CC[C@H]([C@H]2CC[C@H]([C@@H](CCCCCCCCCC[C@H](CC3=C[C@H](C)OC3=O)OC(=O)CCCCCNC(=O)CCCC[C@@H]3SC[C@@H]4NC(=O)N[C@@H]43)OC(=O)CCCCCNC(=O)CCCC[C@@H]3SC[C@@H]4NC(=O)N[C@@H]43)O2)O1 | 1060 nM | 1.92 | > 20000 nM | <0.1 | 2040 nM | – | – | – | – | – |
| CCCCCC[C@H](O)CCC[C@H](O)[C@H]1CC[C@H]([C@H]2CC[C@H]([C@@H](CCCCCCCCCCCCC3=C[C@H](C)OC3=O)OC(=O)CCCC[C@@H]3SC[C@@H]4NC(=O)N[C@@H]43)O2)O1 | 2910 nM | 0.25 | > 20000 nM | <0.036 | 720 nM | – | – | – | – | – |
| CCCCCC[C@H](O)CCC[C@H](O)[C@H]1CC[C@H]([C@H]2CC[C@H]([C@H](O)CCCCCCCCCCCCC3=C[C@H](C)OC3=O)O2)O1 [SQUAMOCIN] | 360 nM | 3.75 | 19800 nM | 0.068 | 1350 nM | – | – | 78% | – | – |
| CCCCCC[C@@H](CCC[C@H](O)[C@H]1CC[C@H]([C@H]2CC[C@H]([C@@H](CCCCCCCCCCCCC3=C[C@H](C)OC3=O)OC(=O)CCCCCNC(=O)CCCC[C@@H]3SC[C@@H]4NC(=O)N[C@@H]43)O2)O1)OC(=O)CCCCCNC(=O)CCCC[C@@H]1SC[C@@H]2NC(=O)N[C@@H]21 | 35 nM | 22.57 | 750 nM | 1.05 | 790 nM | – | – | – | >10 | >26 |
| CCCCCCCCCC[C@H](OC(=O)CCCCCNC(=O)CCCC[C@@H]1SC[C@@H]2NC(=O)N[C@@H]21)[C@H]1CC[C@H]([C@H]2CC[C@H]([C@H](O)CCCCCCCCCC[C@H](CC3=C[C@H](C)OC3=O)OC(=O)CCCCCNC(=O)CCCC[C@@H]3SC[C@@H]4NC(=O)N[C@@H]43)O2)O1 | 55 nM | 26.73 | 750 nM | 1.96 | 1470 nM | – | – | – | – | – |
